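1) Cells in 96-well plates. 2) Compound, 48 h, 5 concentrations. 3) Linear interpolation between surrounding doses. 4) Unreached endpoint = highest concentration. TGI: concentration producing complete growth inhibition.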
Experiments:
Test in all cases: NCI-60 cell line screen, 48 h
OVCAR-3 ovarian = tested on: OVCAR-3 ovarian
HOP-92 NSCLC = tested on: HOP-92 NSCLC
HT29 colon = tested on: HT29 colon
M14 melanoma = tested on: M14 melanoma
SK-MEL-2 melanoma = tested on: SK-MEL-2 melanoma
UO-31 renal = tested on: UO-31 renal
KM20L2 colon = tested on: KM20L2 colon
SF-268 CNS = tested on: SF-268 CNS
MOLT-4 leukemia = tested on: MOLT-4 leukemia
NCI-H23 lung = tested on: NCI-H23 lung
SNB-19 CNS = tested on: SNB-19 CNS
OVCAR-4 ovarian = tested on: OVCAR-4 ovarian
SK-OV-3 ovarian = tested on: SK-OV-3 ovarian
UACC-62 melanoma = tested on: UACC-62 melanoma
SNB-78 CNS = tested on: SNB-78 CNS
SR leukemia = tested on: SR leukemia
MALME-3M melanoma = tested on: MALME-3M melanoma
DMS 114 small cell lung = tested on: DMS 114 small cell lung
NCI-H460 lung = tested on: NCI-H460 lung
LXFL 529 NSCLC = tested on: LXFL 529 NSCLC
SK-MEL-28 melanoma = tested on: SK-MEL-28 melanoma
RXF 393 renal = tested on: RXF 393 renal
OVCAR-5 ovarian = tested on: OVCAR-5 ovarian
K-562 leukemia = tested on: K-562 leukemia
UACC-257 melanoma = tested on: UACC-257 melanoma
HL-60(TB) leukemia = tested on: HL-60(TB) leukemia
IGROV1 ovarian = tested on: IGROV1 ovarian
786-0 renal = tested on: 786-0 renal
M19-MEL melanoma = tested on: M19-MEL melanoma
KM12 colon = tested on: KM12 colon
SNB-75 CNS = tested on: SNB-75 CNS
A498 renal = tested on: A498 renal
ACHN renal = tested on: ACHN renal
RPMI-8226 leukemia = tested on: RPMI-8226 leukemia
U251 CNS = tested on: U251 CNS
HOP-62 NSCLC = tested on: HOP-62 NSCLC
NCI-H522 lung = tested on: NCI-H522 lung
COLO 205 colon = tested on: COLO 205 colon
SF-295 CNS = tested on: SF-295 CNS
SN12C renal = tested on: SN12C renal
CCRF-CEM leukemia = tested on: CCRF-CEM leukemia
HCT-116 colon = tested on: HCT-116 colon
SK-MEL-5 melanoma = tested on: SK-MEL-5 melanoma
SW-620 colon = tested on: SW-620 colon
OVCAR-8 ovarian = tested on: OVCAR-8 ovarian
SF-539 CNS = tested on: SF-539 CNS
EKVX NSCLC = tested on: EKVX NSCLC
A549 NSCLC = tested on: A549 NSCLC
TK-10 renal = tested on: TK-10 renal
NCI-H226 lung = tested on: NCI-H226 lung
DMS 273 small cell lung = tested on: DMS 273 small cell lung
HCC-2998 colon = tested on: HCC-2998 colon
HCT-15 colon = tested on: HCT-15 colon
LOX IMVI melanoma = tested on: LOX IMVI melanoma
CAKI-1 renal = tested on: CAKI-1 renal

COc1ccc2c(c1)CC[C@@H]1C2CC[C@]2(C)C(=O)N(CCN3CCCC3)C(=O)CC12 (stereo partly drawn)
TGI (OVCAR-3 ovarian): > 100 µM | TGI (HOP-92 NSCLC): 81.8 µM | TGI (HT29 colon): 34.8 µM | TGI (M14 melanoma): 31.1 µM | TGI (SK-MEL-2 melanoma): 32.2 µM | TGI (UO-31 renal): 49.9 µM | TGI (KM20L2 colon): 55 µM | TGI (SF-268 CNS): > 100 µM | TGI (MOLT-4 leukemia): 57.7 µM | TGI (NCI-H23 lung): > 100 µM | TGI (SNB-19 CNS): > 100 µM | TGI (OVCAR-4 ovarian): > 100 µM | TGI (SK-OV-3 ovarian): > 100 µM | TGI (UACC-62 melanoma): 35.1 µM | TGI (SNB-78 CNS): > 100 µM | TGI (SR leukemia): > 100 µM | TGI (MALME-3M melanoma): 31.5 µM | TGI (DMS 114 small cell lung): 76.4 µM | TGI (NCI-H460 lung): > 100 µM | TGI (LXFL 529 NSCLC): 89.6 µM | TGI (SK-MEL-28 melanoma): 38.9 µM | TGI (RXF 393 renal): 86.7 µM | TGI (OVCAR-5 ovarian): > 100 µM | TGI (K-562 leukemia): 70.1 µM | TGI (UACC-257 melanoma): 38.7 µM | TGI (HL-60(TB) leukemia): 45.2 µM | TGI (IGROV1 ovarian): > 100 µM | TGI (786-0 renal): 35.8 µM | TGI (M19-MEL melanoma): 35.7 µM | TGI (KM12 colon): > 100 µM | TGI (SNB-75 CNS): 87.1 µM | TGI (A498 renal): > 100 µM | TGI (ACHN renal): > 100 µM | TGI (RPMI-8226 leukemia): 34.4 µM | TGI (U251 CNS): > 100 µM | TGI (HOP-62 NSCLC): 66.6 µM | TGI (NCI-H522 lung): 52.7 µM | TGI (COLO 205 colon): 37.6 µM | TGI (SF-295 CNS): 42.1 µM

COc1ccc(C2C(Cl)C(=O)N2NC(=O)c2ccccc2O)cc1 (stereo not drawn)
TGI (OVCAR-3 ovarian): > 100 µM | TGI (HOP-92 NSCLC): > 100 µM | TGI (HT29 colon): > 100 µM | TGI (M14 melanoma): > 100 µM | TGI (SK-MEL-2 melanoma): > 100 µM | TGI (UO-31 renal): > 100 µM | TGI (KM20L2 colon): > 100 µM | TGI (SF-268 CNS): > 100 µM | TGI (MOLT-4 leukemia): > 100 µM | TGI (NCI-H23 lung): > 100 µM | TGI (SNB-19 CNS): > 100 µM | TGI (OVCAR-4 ovarian): > 100 µM | TGI (SN12C renal): > 100 µM | TGI (SK-OV-3 ovarian): > 100 µM | TGI (CCRF-CEM leukemia): > 100 µM | TGI (UACC-62 melanoma): > 100 µM | TGI (HCT-116 colon): > 100 µM | TGI (SK-MEL-5 melanoma): > 100 µM | TGI (SW-620 colon): > 100 µM | TGI (SR leukemia): > 100 µM | TGI (MALME-3M melanoma): > 100 µM | TGI (DMS 114 small cell lung): > 100 µM | TGI (NCI-H460 lung): > 100 µM | TGI (LXFL 529 NSCLC): > 100 µM | TGI (SK-MEL-28 melanoma): > 100 µM | TGI (RXF 393 renal): > 100 µM | TGI (K-562 leukemia): > 100 µM | TGI (UACC-257 melanoma): > 100 µM | TGI (OVCAR-8 ovarian): > 100 µM | TGI (HL-60(TB) leukemia): > 100 µM | TGI (IGROV1 ovarian): > 100 µM | TGI (M19-MEL melanoma): > 100 µM | TGI (KM12 colon): > 100 µM | TGI (SF-539 CNS): > 100 µM | TGI (SNB-75 CNS): > 100 µM | TGI (RPMI-8226 leukemia): > 100 µM | TGI (EKVX NSCLC): > 100 µM | TGI (A549 NSCLC): > 100 µM | TGI (U251 CNS): > 100 µM | TGI (TK-10 renal): > 100 µM | TGI (HOP-62 NSCLC): > 100 µM | TGI (NCI-H522 lung): > 100 µM | TGI (COLO 205 colon): > 100 µM | TGI (SF-295 CNS): > 100 µM

CCOC(=O)c1cnc2oc(-c3ccc(OC)cc3)nn2c1=O
TGI (OVCAR-3 ovarian): > 100 µM | TGI (HOP-92 NSCLC): > 100 µM | TGI (HT29 colon): > 100 µM | TGI (NCI-H226 lung): > 100 µM | TGI (SK-MEL-2 melanoma): > 100 µM | TGI (UO-31 renal): > 100 µM | TGI (DMS 273 small cell lung): > 100 µM | TGI (KM20L2 colon): > 100 µM | TGI (SF-268 CNS): > 100 µM | TGI (MOLT-4 leukemia): > 100 µM | TGI (NCI-H23 lung): > 100 µM | TGI (HCC-2998 colon): > 100 µM | TGI (SNB-19 CNS): > 100 µM | TGI (OVCAR-4 ovarian): > 100 µM | TGI (SN12C renal): > 100 µM | TGI (SK-OV-3 ovarian): > 100 µM | TGI (UACC-62 melanoma): > 100 µM | TGI (HCT-116 colon): > 100 µM | TGI (SK-MEL-5 melanoma): > 100 µM | TGI (SW-620 colon): > 100 µM | TGI (SNB-78 CNS): > 100 µM | TGI (MALME-3M melanoma): > 100 µM | TGI (DMS 114 small cell lung): > 100 µM | TGI (LXFL 529 NSCLC): > 100 µM | TGI (SK-MEL-28 melanoma): > 100 µM | TGI (RXF 393 renal): > 100 µM | TGI (OVCAR-5 ovarian): > 100 µM | TGI (K-562 leukemia): > 100 µM | TGI (UACC-257 melanoma): > 100 µM | TGI (OVCAR-8 ovarian): > 100 µM | TGI (IGROV1 ovarian): > 100 µM | TGI (786-0 renal): > 100 µM | TGI (M19-MEL melanoma): > 100 µM | TGI (KM12 colon): > 100 µM | TGI (SF-539 CNS): > 100 µM | TGI (SNB-75 CNS): > 100 µM | TGI (RPMI-8226 leukemia): > 100 µM | TGI (EKVX NSCLC): > 100 µM | TGI (A549 NSCLC): > 100 µM | TGI (U251 CNS): > 100 µM | TGI (TK-10 renal): > 100 µM | TGI (NCI-H522 lung): > 100 µM | TGI (HCT-15 colon): > 100 µM | TGI (COLO 205 colon): > 100 µM | TGI (SF-295 CNS): > 100 µM

c1ccc(C2=NOC3COc4ccccc4OCC23)cc1 (stereo not drawn)
TGI (OVCAR-3 ovarian): > 100 µM | TGI (HT29 colon): > 100 µM | TGI (LOX IMVI melanoma): > 100 µM | TGI (M14 melanoma): > 100 µM | TGI (SK-MEL-2 melanoma): > 100 µM | TGI (UO-31 renal): > 100 µM | TGI (DMS 273 small cell lung): > 100 µM | TGI (KM20L2 colon): > 100 µM | TGI (SF-268 CNS): > 100 µM | TGI (MOLT-4 leukemia): > 100 µM | TGI (NCI-H23 lung): > 100 µM | TGI (HCC-2998 colon): > 100 µM | TGI (SNB-19 CNS): > 100 µM | TGI (OVCAR-4 ovarian): > 100 µM | TGI (SN12C renal): > 100 µM | TGI (SK-OV-3 ovarian): > 100 µM | TGI (CCRF-CEM leukemia): > 100 µM | TGI (UACC-62 melanoma): > 100 µM | TGI (HCT-116 colon): > 100 µM | TGI (SK-MEL-5 melanoma): > 100 µM | TGI (SW-620 colon): > 100 µM | TGI (SNB-78 CNS): > 100 µM | TGI (SR leukemia): > 100 µM | TGI (MALME-3M melanoma): > 100 µM | TGI (DMS 114 small cell lung): > 100 µM | TGI (NCI-H460 lung): > 100 µM | TGI (LXFL 529 NSCLC): > 100 µM | TGI (SK-MEL-28 melanoma): > 100 µM | TGI (RXF 393 renal): > 100 µM | TGI (K-562 leukemia): > 100 µM | TGI (UACC-257 melanoma): > 100 µM | TGI (OVCAR-8 ovarian): > 100 µM | TGI (HL-60(TB) leukemia): > 100 µM | TGI (786-0 renal): > 100 µM | TGI (KM12 colon): > 100 µM | TGI (SF-539 CNS): > 100 µM | TGI (SNB-75 CNS): > 100 µM | TGI (A498 renal): > 100 µM | TGI (ACHN renal): > 100 µM | TGI (RPMI-8226 leukemia): > 100 µM | TGI (EKVX NSCLC): > 100 µM | TGI (A549 NSCLC): > 100 µM | TGI (U251 CNS): > 100 µM | TGI (TK-10 renal): > 100 µM | TGI (HOP-62 NSCLC): > 100 µM | TGI (NCI-H522 lung): > 100 µM | TGI (HCT-15 colon): > 100 µM | TGI (COLO 205 colon): > 100 µM | TGI (CAKI-1 renal): > 100 µM | TGI (SF-295 CNS): > 100 µM
